Source: patent US20220332799A1, “HERV INHIBITORS FOR USE IN TREATING TAUOPATHIES” (Deutsches Zentrum Für Neurodegenerative Erkrankungen E.V. …, priority 2019, published 2022)
Entries after “also recorded” stand apart in the source; their conditions may differ. Where two headings read alike, the source gives them in different places.

Assays:
N2a NM-GFP^sol cells = format: cell-based, mouse; conditions: for percentage of recipient cells with NM-GFP aggregates: compounds added to cocultures 1 h after co-seeding, three concentrations, 12 h
MuERV Env and Gag = format: cell-based, mouse; conditions: s2E P1 donors; Aza 200 nM or Dec 100 nM, then 5 days without drug; vs DMSO
Description: To inhibit methyltransferases, s2E P1 donor cells were treated for three days with methyltransferase inhibitors 5-Azacytidine (Aza) 200 nM, Decitabine (Dec) 100 nM or DMSO as solvent control. Subsequently, the cells were cultured in the absence of the drugs for 5 days. Pre-treated donor cells were subsequently cocultured with recipient cells as described above to monitor aggregate induction efficiency in recipient N2a NM-GFP^sol cells. Cell lysates of donor cells were also analyzed for MuERV Env and Gag expression levels by western blot. To increase DNA methylation, the s2E donor clone (P21) was treated with methyl group donors L-methionine (L-M) 80 mM, Betaine (B) 80 mM, Choline chloride (CC) 20 mM or medium control for 6 days. MuERV Env and Gag protein levels were analyzed by western blot. Subsequently, cells were cocultured with recipient cells for 16 h. The percentage of aggregate containing recipient cells was compared to the percentage of aggregate bearing recipients cocultured with solvent-treated donors.
Pre-designed siRNAs against murine XPR1 and mCat-1 genes were used to knock-down genes coding for putative receptors. For transfection, 2-4×10^5 cells/well were seeded on 6 well plates. The next day, 30 nM siRNA or plasmid DNA was transfected using Lipofectamine RNAiMAX or Lipofectamine2000 transfection reagent, respectively, according to the manufacturer's instructions (Thermo Fisher Scientific). After 2 days, transfected cells were harvested for aggregate induction assays and qRT-PCR, western blot analysis.
For Western blot analysis, protein concentrations were measured using the Quick Start™ Bradford Protein assay (Bio-Rad). Proteins were separated on NuPAGE®Novex® 4-12 Bis-Tris Protein Gels (Life Technologies) followed by transfer onto a PVDF membrane (GE Healthcare). Western blot analysis was performed using rat hybridoma anti-MuERV Env mAb83A25; anti-xenotropic MuLV virus antibody ABIN457298 for detecting both Env and Gag (antibodies-online); mouse anti-MuERV Gag ab100970 (Abcam); mouse anti-Alix (1:1000; BD Bioscience); rat anti-HA 3F10 (1:1000; Roche); mouse anti-GAPDH 6C5 (1:5000; Abcam); mouse anti-Hsc/Hsp70 N27F3-4 (1:1000; ENZO); mouse anti-VSV-G A5977 (Sigma); rabbit anti-Tau ab64193 (Abcam); mouse anti-HERV K Env HERM-1811-5 (Amsbio); mouse anti-HERV K Gag HERM-1841-5 (Amsbio). The membrane was incubated with Pierce™ ECL Western Blotting Substrate (Thermo Fisher Scientific) according to the manufacturer's recommendations.

[1] = tested on: HEK Tau-FusionRed^sol cells expressing murine XPR1-HA; test: Tau aggregate induction in recipient cells by coculture with N2a s2E Tau-GFP^CBD donor cells; format: cell-based, human; conditions: donors pretreated with 10 μM; coculture 3 d in the presence of 10 μM; vs DMSO
Description: To examine this effect on Tau aggregate spreading, an N2a s2E cell clone stably propagating aggregated Tau-GFP^CBD was produced (FIG. 11a). […]. Cells and EVs were analyzed for the presence of aggregated Tau-GFP. Pronase-resistant Tau-GFP was found in both cell lysate and EVs (FIG. 2q). To inhibit MuERV gene product maturation, donor cells were treated with Amprenavir for three days. Donor cells and donor cell-derived EVs were subsequently exposed for three days to recipient HEK cells expressing soluble Tau-FusionRed and the murine XPR1 receptor variant required for MuERV Env interaction. Due to this long incubation time, the coculture and EV induction assays were performed in the presence of Amprenavir (FIG. 11b). […]
Recipient cells were cultured on CellCarrier-96 plates or 384 black microplates (PerkinElmer) at appropriate cell numbers for 1 h, and then treated with 5-10 μl of prepared samples (isolated EVs or recombinant NM fibrils). […] On average, a total of 3-4×10^4 cells per well and at least 3 wells per treatment were analyzed.
The treatment of cells with Amprenavir (10 μM; Santa Cruz) and DMSO was performed for 72 h in EV-depleted medium in T175 flasks. Afterwards, the total numbers of viable cells and the viability upon drug treatment were determined using the Vi-VELL™ XR Cell Viability Analyzer (Beckman Coulter). […]

HEK NM-mCherry^sol cells = test: NM-mCherry aggregate induction by coculture with T47D NM-GFP^agg donor cells; format: cell-based, human; conditions: 10 μM, donors 1 d pretreated, coculture 1 d in presence of drug; vs DMSO
HERV-K = conditions: Tyagi et al., Retrovirology (2017), 14:21; cited from earlier work

Row | Compound | NM aggregate induction in recipient cells cocultured with pretreated donors (N2a NM-GFP^sol cells; s2E P1 donors pretreated, Aza 200 nM or Dec 100 nM, vs DMSO) | expression of MuERV proteins (MuERV Env and Gag) | percentage of recipient cells with NM-GFP aggregates (N2a NM-GFP^sol cells; vs DMSO) | percentage of recipient cells with NM-GFP aggregates (N2a NM-GFP^sol cells; vs DMSO, listed as amprenavir) | intercellular aggregate induction during coculture (N2a NM-GFP^sol cells; donor cells pre-treated with 10 μM for 3 days, coculture in the absence of drug, 16 h) | Tau-FusionRed aggregate induction in cocultures [1] | number of recipient cells with induced NM-mCherry aggregates (HEK NM-mCherry^sol cells) | effectiveness against HERV-K (HERV-K)
1 | Nc1ncn([C@H]2C[C@H](O)[C@@H](CO)O2)c(=O)n1 [Decitabine, 5-aza-2′-deoxycytidine] | significantly increased NM aggregate induction in recipient cells | increased expression |  |  |  |  |  | 
2 | CC(C)CN(C[C@@H](O)[C@H](Cc1ccccc1)NC(=O)O[C@H]1CCOC1)S(=O)(=O)c1ccc(N)cc1 [Amprenavir] |  |  | reduce aggregate induction; also recorded: observed only when donor cells were cotreated | reduced the percentage of recipient cells with NM-GFP aggregates | significantly inhibited intercellular aggregate induction during coculture | decreased Tau-FusionRed aggregate induction in Amprenavir-treated cocultures; also recorded: significantly decreased Tau-FusionRed aggregate induction in recipients | reduced the number of recipient cells with induced NM-mCherry aggregates compared to the DMSO control; also recorded: impairs NM-mCherry aggregate induction | effective against HERV-K
